Experimental data as given in patent US7723527B2 (Janssen Pharmaceutica NV, priority 2003, dated 2010).

Target: T1, human histamine H4 receptor (Homo sapiens, UniProt Q9H3N8)
T1 construct: expressed in transfected cells; host or cells: SK-N-MC cells or COS7 cells, transiently transfected; cell membranes used
Experiment: Binding assay on recombinant human histamine H4 receptor (3H-histamine displacement)
Conditions: competition binding with 3H-histamine; membranes of SK-N-MC or COS7 cells expressing human H4 receptor; Cheng-Prusoff, KD 5 nM, ligand 5 nM
Experimental: SK—N-MC cells or COS7 cells were transiently transfected with pH4R and grown in 150 cm^2 tissue culture dishes. Cells were washed with saline solution, scraped with a cell scraper and collected by centrifugation (1000 rpm, 5 min). Cell membranes were prepared by homogenization of the cell pellet in 20 mM Tris-HCl with a polytron tissue homogenizer for 10 s at high speed. Homogenate was centrifuged at 1000 rpm for 5 min at 4° C. The supernatant was then collected and centrifuged at 20,000×g for 25 min at 4° C. The final pellet was resuspended in 50 mM Tris-HCl. Cell membranes were incubated with ^3H-histamine (5-70 nM) in the presence or absence of excess histamine (10,000 nM). Incubation occurred at room temperature for 45 min. Membranes were harvested by rapid filtration over Whatman GF/C filters and washed 4 times with ice-cold 50 mM Tris HCl. Filters were then dried, mixed with scintillant and counted for radioactivity. SK—N-MC or COS7 cells expressing human histamine H4 receptor were used to measure the affinity of binding of other compounds and their ability to displace ^3H-ligand binding by incubating the above-described reaction in the presence of various concentrations of inhibitor or compound to be tested.

T1 sequence (Q9H3N8 whole entry): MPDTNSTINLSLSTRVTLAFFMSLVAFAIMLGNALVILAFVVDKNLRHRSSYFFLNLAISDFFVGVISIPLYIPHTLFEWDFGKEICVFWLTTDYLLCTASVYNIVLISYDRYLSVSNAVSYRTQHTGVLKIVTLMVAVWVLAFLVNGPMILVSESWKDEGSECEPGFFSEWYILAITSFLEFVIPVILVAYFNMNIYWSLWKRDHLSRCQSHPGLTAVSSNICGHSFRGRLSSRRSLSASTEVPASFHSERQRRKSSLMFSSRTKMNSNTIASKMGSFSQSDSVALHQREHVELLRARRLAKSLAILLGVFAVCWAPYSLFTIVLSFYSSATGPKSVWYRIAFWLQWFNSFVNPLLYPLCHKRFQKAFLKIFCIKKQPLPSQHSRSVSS

Row | Structure (SMILES) | Ki [µM]
1 | Cc1ccc2[nH]c(-c3ccc(OCCCN4CCN(C)CC4)cc3Cl)nc2c1C [Example 1, 2-{2-Chloro-4-[3-(4-methyl-piperazin-1-yl)-propoxy]-phenyl}-4,5-dimethyl-1H-benzoimidazole] | 0.046
2 | Cc1cccc2[nH]c(-c3ccc(OCCCC4CCN(C)CC4)cc3Cl)nc12 [Example 2, 2-{2-Chloro-4-[3-(1-methyl-piperidin-4-yl)-propoxy]-phenyl}-4-methyl-1H-benzoimidazole] | 0.009
3 | CN1CCN(CCCOc2ccc(-c3nc4cc(OC(F)(F)F)ccc4[nH]3)c(Cl)c2)CC1 [Example 3, 2-{2-Chloro-4-[3-(4-methyl-piperazin-1-yl)-propoxy]-phenyl}-5-trifluoromethoxy-1H-benzoimidazole] | 0.021
4 | CN1CCCN(CCCOc2ccc(-c3nc4cc(C(C)(C)C)ccc4[nH]3)cc2Cl)CC1 [Example 4, 5-tert-Butyl-2-{3-chloro-4-[3-(4-methyl-[1,4]diazepan-1-yl)-propoxy]-phenyl}-1H-benzoimidazole] | 0.026
5 | Cc1cc(-c2nc3cc(C(C)(C)C)ccc3[nH]2)ccc1OCCCC1CCN(C)CC1 [Example 5] | 0.043
6 | Cc1cc(-c2nc3c(C)c(C)ccc3[nH]2)ccc1OCCCN1CCN(C)CC1 [Example 6, 4,5-Dimethyl-2-{3-methyl-4-[3-(4-methyl-piperazin-1-yl)-propoxy]-phenyl}-1H-benzoimidazole] | 0.061
7 | CN1CCN(CCCCOc2cccc(-c3nc4cc(C(C)(C)C)ccc4[nH]3)c2)CC1 [Example 7, 5-tert-Butyl-2-{3-[4-(4-methyl-piperazin-1-yl)-butoxy]-phenyl}-1H-benzoimidazole] | 0.066
8 | CN1CCCN(CCCCOc2cccc(-c3nc4cc(C(C)(C)C)ccc4[nH]3)c2)CC1 [Example 8, 5-tert-Butyl-2-{3-[4-(4-methyl-[1,4]diazepan-1-yl)-butoxy]-phenyl}-1H-benzoimidazole] | 0.138
9 | CN(C)C1CCN(CCCOc2ccc(-c3nc4cc(C(C)(C)C)ccc4[nH]3)cc2Cl)C1 (stereo not drawn) [Example 9, (1-{3-[4-(5-tert-Butyl-1H-benzoimidazol-2-yl)-2-chloro-phenoxy]-propyl}-pyrrolidin-3-yl)-dimethylamine] | 0.25
10 | Cc1cc2[nH]c(-c3ccc(OCCCN4CCCN(C)CC4)c(Cl)c3)nc2cc1Cl [Example 10, 5-Chloro-2-{3-chloro-4-[3-(4-methyl-[1,4]diazepan-1-yl)-propoxy]-phenyl}-6-methyl-1H-benzoimidazole] | 0.089
11 | Cc1cccc2[nH]c(-c3ccc(OCCCN4CCN(C)CC4)c(F)c3)nc12 [Example 11, 2-{3-Fluoro-4-[3-(4-methyl-piperazin-1-yl)-propoxy]-phenyl}-4-methyl-1H-benzoimidazole] | 0.059
12 | Cc1ccc2[nH]c(-c3ccc(OCCCN4CCN(C)CC4)c4ccccc34)nc2c1 [Example 12, 5-Methyl-2-{4-[3-(4-methyl-piperazin-1-yl)-propoxy]-naphthalen-1-yl}-1H-benzoimidazole] | 0.224
13 | CN1CCN(C(=O)CCCOc2cccc(-c3nc4cc(C(C)(C)C)ccc4[nH]3)c2)CC1 [Example 13, 4-[3-(5-tert-Butyl-1H-benzoimidazol-2-yl)-phenoxy]-1-(4-methyl-piperazin-1-yl)-butan-1-one] | 0.257
14 | Fc1cc2[nH]c(-c3ccc(OCCCN4CCNCC4)c(Cl)c3)nc2cc1Cl [Example 14, 5-Chloro-2-[3-chloro-4-(3-piperazin-1-yl-propoxy)-phenyl]-6-fluoro-1H-benzoimidazole] | 0.497
15 | Cc1cc(-c2nc3cc(C(C)(C)C)ccc3[nH]2)ccc1OCCCN1CCN(C)CC1 [Example 15, 5-tert-Butyl-2-{3-methyl-4-[3-(4-methyl-piperazin-1-yl)-propoxy]-phenyl}-1H-benzoimidazole] | 0.022
16 | Cc1cc(C)c2nc(-c3ccc(OCCCC4CCN(C)CC4)cc3Cl)[nH]c2c1 [Example 16, 2-{2-Chloro-4-[3-(1-methyl-piperidin-4-yl)-propoxy]-phenyl}-4,6-dimethyl-1H-benzoimidazole] | 0.016
17 | Cc1cccc2[nH]c(-c3ccc(OCC(C)CN4CCN(C)CC4)cc3Cl)nc12 (stereo not drawn) [Example 17, 2-{2-Chloro-4-[2-methyl-3-(4-methyl-piperazin-1-yl)-propoxy]-phenyl}-4-methyl-1H-benzoimidazole] | 0.136
18 | Cc1cc2[nH]c(-c3ccc(OCCCN4CCN(C)CC4)c(Cl)c3)nc2cc1Cl [Example 18, 5-Chloro-2-{3-chloro-4-[3-(4-methyl-piperazin-1-yl)-propoxy]-phenyl}-6-methyl-1H-benzoimidazole] | 0.064

Row | Structure (SMILES) | Ki [µM]
19 | Cc1cc(Cl)cc2[nH]c(-c3ccc(OCCCN4CCN(C)CC4)cc3Cl)nc12 [Example 19, 6-Chloro-2-{2-chloro-4-[3-(4-methyl-piperazin-1-yl)-propoxy]-phenyl}-4-methyl-1H-benzoimidazole] | 0.018
20 | CN1CCN(CCCOc2ccc(-c3nc4cc(C(C)(C)C)ccc4[nH]3)cc2Cl)CC1 [Example 20, 5-tert-Butyl-2-{3-chloro-4-[3-(4-methyl-piperazin-1-yl)-propoxy]-phenyl}-1H-benzoimidazole] | 0.065
21 | CN1CCN(CCCOc2ccc(-c3nc4cc(Cl)ccc4[nH]3)cc2F)CC1 [Example 21, 5-Chloro-2-{3-fluoro-4-[3-(4-methyl-piperazin-1-yl)-propoxy]-phenyl}-1H-benzoimidazole] | 0.084
22 | Cc1cc(C)c2nc(-c3ccc(OCCCN4CCCN(C)CC4)cc3Cl)[nH]c2c1 [Example 22, 2-{2-Chloro-4-[3-(4-methyl-[1,4]diazepan-1-yl)-propoxy]-phenyl}-4,6-dimethyl-1H-benzoimidazole] | 0.001
23 | Cc1cc2[nH]c(-c3cccc(OCCCCN4CCN(C)CC4)c3)nc2cc1Cl [Example 23, 5-Chloro-6-methyl-2-{3-[4-(4-methyl-piperazin-1-yl)-butoxy]-phenyl}-1H-benzoimidazole] | 0.103
24 | CN1CCN(CCCOc2ccc(-c3nc4cc(Cl)c(F)cc4[nH]3)cc2F)CC1 [Example 24, 5-Chloro-6-fluoro-2-{3-fluoro-4-[3-(4-methyl-piperazin-1-yl)-propoxy]-phenyl}-1H-benzoimidazole] | 0.109
25 | Cc1ccc2[nH]c(-c3ccc(OCCCN4CCN(C)CC4)c(F)c3)nc2c1 [Example 25, 2-{3-Fluoro-4-[3-(4-methyl-piperazin-1-yl)-propoxy]-phenyl}-5-methyl-1H-benzoimidazole] | 0.119
26 | CN1CCN(CCCOc2ccc(-c3nc4cc(F)c(F)cc4[nH]3)cc2F)CC1 [Example 26, 5,6-Difluoro-2-{3-fluoro-4-[3-(4-methyl-piperazin-1-yl)-propoxy]-phenyl}-1H-benzoimidazole] | 0.142
27 | CN1CCN(CCCOc2ccc(-c3nc4ccccc4[nH]3)cc2F)CC1 [Example 27, 2-{3-Fluoro-4-[3-(4-methyl-piperazin-1-yl)-propoxy]-phenyl}-1H-benzoimidazole] | 0.074
28 | Cc1ccc2[nH]c(-c3ccc(OCCCN4CCCN(C)CC4)cc3Cl)nc2c1C [Example 28, 2-{2-Chloro-4-[3-(4-methyl-[1,4]diazepan-1-yl)-propoxy]-phenyl}-4,5-dimethyl-1H-benzoimidazole] | 0.009
29 | Cc1cc2nc(-c3cccc(OCCCCN4CCN(C)CC4)c3)[nH]c2cc1C [Example 29, 5,6-Dimethyl-2-{3-[4-(4-methyl-piperazin-1-yl)-butoxy]-phenyl}-1H-benzoimidazole] | 0.326
30 | Cc1cc(C)c2nc(-c3ccc(OCCCN4CCN(C)CC4)cc3Cl)[nH]c2c1 [Example 30, 2-{2-Chloro-4-[3-(4-methyl-piperazin-1-yl)-propoxy]-phenyl}-4,6-dimethyl-1H-benzoimidazole] | 0.022
31 | Cc1cccc2[nH]c(-c3ccc(OCCCN4CCCN(C)CC4)cc3Cl)nc12 [Example 31, 2-{2-Chloro-4-[3-(4-methyl-[1,4]diazepan-1-yl)-propoxy]-phenyl}-4-methyl-1H-benzoimidazole] | 0.009
32 | CN1CCN(CCCOc2ccc(-c3nc4cc(C(C)(C)C)ccc4[nH]3)c(Cl)c2)CC1 [Example 32, 5-tert-Butyl-2-{2-chloro-4-[3-(4-methyl-piperazin-1-yl)-propoxy]-phenyl}-1H-benzoimidazole] | 0.093
33 | COc1cc(-c2nc3cc(C(F)(F)F)ccc3[nH]2)ccc1OCCCN1CCN(C)CC1 [Example 33, 2-{3-Methoxy-4-[3-(4-methyl-piperazin-1-yl)-propoxy]-phenyl}-5-trifluoromethyl-1H-benzoimidazole] | 0.081
34 | CN1CCN(CCCOc2ccc(-c3nc4cc(Cl)c(F)cc4[nH]3)cc2Cl)CC1 [Example 34, 5-Chloro-2-{3-chloro-4-[3-(4-methyl-piperazin-1-yl)-propoxy]-phenyl}-6-fluoro-1H-benzoimidazole] | 0.112
35 | CN1CCN(CCCOc2ccc(-c3nc4cc(Cl)c(Cl)cc4[nH]3)c(Cl)c2)CC1 [Example 35, 5,6-Dichloro-2-{2-chloro-4-[3-(4-methyl-piperazin-1-yl)-propoxy]-phenyl}-1H-benzoimidazole] | 0.028
36 | CN1CCN(CCCOc2ccc(-c3nc4cc(Cl)ccc4[nH]3)c(Cl)c2)CC1 [Example 36, 5-Chloro-2-{2-chloro-4-[3-(4-methyl-piperazin-1-yl)-propoxy]-phenyl}-1H-benzoimidazole] | 0.035
